Experimental findings from patent publication US20080070866A1, “Chemical compounds” (Praecis Pharmaceuticals Incorporated, priority 2006, published 2008) are described below.

This experiment has as its target T1, S1P-1 receptor (Homo sapiens, UniProt P21453).
T1 construct: expressed in transfected cells; host or cells: HEK 293 T cells (membrane preparation)
Put plainly: [33P]sphingosine 1-phosphate binding assay on membranes of transfected HEK 293 T cells. The following applies: [33P]S1P binding, receptor taken from context of b294. Here is the method:
In certain embodiments, the compounds of the invention selective for the S1P-1 receptor as compared to one or more of the other S1P receptors. For example, one set of compounds includes compounds which are selective for the S1P-1 receptor relative to the S1P-3 receptor. […] The EC50 of a compound is determined using the ^35S-GTPγS binding assay, as described in WO 03/061567, the entire contents of which are incorporated herein by reference. […] The IC50 of a compound is determined using the [^33P]sphingosine 1-phosphate binding assay, as described in Davis, M. D. et al., Sphingosine 1-Phosphate Analogs as Receptor Antagonists. J. Biol. Chem. (2005) 280:9833-9841, the entire contents of which are incorporated herein by this reference.
The terms “agonist” or “S1P-1 receptor agonist” as used herein include the compounds described herein which bind to and/or agonize the S1P-1 receptor. […] The compounds' IC50 for the S1P1 receptor can be measured using the binding assays described in Example 13 or those described in WO 03/061567.
The ability of several of the compounds described herein to bind to the S1P-1 or S1P-3 receptor was also tested as follows.
For the membrane preparation, plasmid DNA was transfected into HEK 293 T cells using the FuGENE 6 transfection protocol (publicly available from Roche). […] Protein concentration was determined spectroscopically by Bradford protein assay. […]

T1 sequence (P21453 whole entry): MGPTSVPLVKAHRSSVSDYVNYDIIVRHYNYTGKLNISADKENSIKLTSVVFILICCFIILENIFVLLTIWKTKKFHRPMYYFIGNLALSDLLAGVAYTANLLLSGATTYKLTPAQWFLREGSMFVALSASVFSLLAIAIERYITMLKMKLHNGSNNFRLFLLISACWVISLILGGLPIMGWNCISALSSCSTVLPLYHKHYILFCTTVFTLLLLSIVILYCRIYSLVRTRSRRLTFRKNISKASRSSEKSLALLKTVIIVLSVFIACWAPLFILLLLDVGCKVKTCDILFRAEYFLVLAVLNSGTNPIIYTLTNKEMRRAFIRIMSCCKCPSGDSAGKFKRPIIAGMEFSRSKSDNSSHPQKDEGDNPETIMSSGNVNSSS

For `CCCCCOCCOc1ccc(-c2nnc([C@@](C)(N)CO)s2)cc1C(F)(F)F`, the concentration for half-maximal inhibition (IC50) – broadly, the point on the concentration scale where inhibition reaches its midpoint – was determined as 2.17 nM.
